Test results reported in ChEMBL document CHEMBL5214956, “Structure-based design and modular synthesis of novel PI4K class II inhibitors bearing a 4-aminoquinazoline scaffold” (Bioorg Med Chem Lett, 2022).

Legend:
[1] = biological target: Phosphatidylinositol 4-kinase alpha (Homo sapiens, UniProt P42356); assay: Inhibition of PI4KA catalytic domain (unknown origin) assessed as enzyme residual activity incubated for 60 mins using ATP as substrate by ATP-Glo luminescent assay
[2] = biological target: Phosphatidylinositol 4-kinase beta (Homo sapiens, UniProt Q9UBF8); assay: Inhibition of PI4KB catalytic domain (unknown origin) assessed as enzyme residual activity incubated for 60 mins using ATP as substrate by ATP-Glo luminescent assay
[3] = biological target: Phosphatidylinositol 4-kinase type 2-alpha (Homo sapiens, UniProt Q9BTU6); assay: Inhibition of PI4K2A catalytic domain (unknown origin) assessed as enzyme residual activity incubated for 60 mins using ATP as substrate by ATP-Glo luminescent assay
Phosphatidylinositol 4-kinase type 2-alpha, sequence (Q9BTU6 whole entry, the tested form may be a part): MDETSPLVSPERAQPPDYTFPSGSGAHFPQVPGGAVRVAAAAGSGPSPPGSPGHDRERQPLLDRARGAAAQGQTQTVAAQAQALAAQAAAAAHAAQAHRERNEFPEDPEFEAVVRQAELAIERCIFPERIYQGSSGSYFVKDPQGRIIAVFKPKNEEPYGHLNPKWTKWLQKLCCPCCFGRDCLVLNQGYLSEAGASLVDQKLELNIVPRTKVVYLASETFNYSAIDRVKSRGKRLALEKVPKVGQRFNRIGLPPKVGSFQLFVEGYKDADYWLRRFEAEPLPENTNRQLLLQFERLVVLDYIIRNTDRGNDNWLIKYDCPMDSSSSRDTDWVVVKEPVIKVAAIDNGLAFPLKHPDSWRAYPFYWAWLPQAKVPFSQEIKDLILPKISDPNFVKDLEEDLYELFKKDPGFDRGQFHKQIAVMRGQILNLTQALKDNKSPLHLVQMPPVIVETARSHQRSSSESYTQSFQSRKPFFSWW

Phosphatidylinositol 4-kinase alpha, sequence (P42356 whole entry, the tested form may be a part): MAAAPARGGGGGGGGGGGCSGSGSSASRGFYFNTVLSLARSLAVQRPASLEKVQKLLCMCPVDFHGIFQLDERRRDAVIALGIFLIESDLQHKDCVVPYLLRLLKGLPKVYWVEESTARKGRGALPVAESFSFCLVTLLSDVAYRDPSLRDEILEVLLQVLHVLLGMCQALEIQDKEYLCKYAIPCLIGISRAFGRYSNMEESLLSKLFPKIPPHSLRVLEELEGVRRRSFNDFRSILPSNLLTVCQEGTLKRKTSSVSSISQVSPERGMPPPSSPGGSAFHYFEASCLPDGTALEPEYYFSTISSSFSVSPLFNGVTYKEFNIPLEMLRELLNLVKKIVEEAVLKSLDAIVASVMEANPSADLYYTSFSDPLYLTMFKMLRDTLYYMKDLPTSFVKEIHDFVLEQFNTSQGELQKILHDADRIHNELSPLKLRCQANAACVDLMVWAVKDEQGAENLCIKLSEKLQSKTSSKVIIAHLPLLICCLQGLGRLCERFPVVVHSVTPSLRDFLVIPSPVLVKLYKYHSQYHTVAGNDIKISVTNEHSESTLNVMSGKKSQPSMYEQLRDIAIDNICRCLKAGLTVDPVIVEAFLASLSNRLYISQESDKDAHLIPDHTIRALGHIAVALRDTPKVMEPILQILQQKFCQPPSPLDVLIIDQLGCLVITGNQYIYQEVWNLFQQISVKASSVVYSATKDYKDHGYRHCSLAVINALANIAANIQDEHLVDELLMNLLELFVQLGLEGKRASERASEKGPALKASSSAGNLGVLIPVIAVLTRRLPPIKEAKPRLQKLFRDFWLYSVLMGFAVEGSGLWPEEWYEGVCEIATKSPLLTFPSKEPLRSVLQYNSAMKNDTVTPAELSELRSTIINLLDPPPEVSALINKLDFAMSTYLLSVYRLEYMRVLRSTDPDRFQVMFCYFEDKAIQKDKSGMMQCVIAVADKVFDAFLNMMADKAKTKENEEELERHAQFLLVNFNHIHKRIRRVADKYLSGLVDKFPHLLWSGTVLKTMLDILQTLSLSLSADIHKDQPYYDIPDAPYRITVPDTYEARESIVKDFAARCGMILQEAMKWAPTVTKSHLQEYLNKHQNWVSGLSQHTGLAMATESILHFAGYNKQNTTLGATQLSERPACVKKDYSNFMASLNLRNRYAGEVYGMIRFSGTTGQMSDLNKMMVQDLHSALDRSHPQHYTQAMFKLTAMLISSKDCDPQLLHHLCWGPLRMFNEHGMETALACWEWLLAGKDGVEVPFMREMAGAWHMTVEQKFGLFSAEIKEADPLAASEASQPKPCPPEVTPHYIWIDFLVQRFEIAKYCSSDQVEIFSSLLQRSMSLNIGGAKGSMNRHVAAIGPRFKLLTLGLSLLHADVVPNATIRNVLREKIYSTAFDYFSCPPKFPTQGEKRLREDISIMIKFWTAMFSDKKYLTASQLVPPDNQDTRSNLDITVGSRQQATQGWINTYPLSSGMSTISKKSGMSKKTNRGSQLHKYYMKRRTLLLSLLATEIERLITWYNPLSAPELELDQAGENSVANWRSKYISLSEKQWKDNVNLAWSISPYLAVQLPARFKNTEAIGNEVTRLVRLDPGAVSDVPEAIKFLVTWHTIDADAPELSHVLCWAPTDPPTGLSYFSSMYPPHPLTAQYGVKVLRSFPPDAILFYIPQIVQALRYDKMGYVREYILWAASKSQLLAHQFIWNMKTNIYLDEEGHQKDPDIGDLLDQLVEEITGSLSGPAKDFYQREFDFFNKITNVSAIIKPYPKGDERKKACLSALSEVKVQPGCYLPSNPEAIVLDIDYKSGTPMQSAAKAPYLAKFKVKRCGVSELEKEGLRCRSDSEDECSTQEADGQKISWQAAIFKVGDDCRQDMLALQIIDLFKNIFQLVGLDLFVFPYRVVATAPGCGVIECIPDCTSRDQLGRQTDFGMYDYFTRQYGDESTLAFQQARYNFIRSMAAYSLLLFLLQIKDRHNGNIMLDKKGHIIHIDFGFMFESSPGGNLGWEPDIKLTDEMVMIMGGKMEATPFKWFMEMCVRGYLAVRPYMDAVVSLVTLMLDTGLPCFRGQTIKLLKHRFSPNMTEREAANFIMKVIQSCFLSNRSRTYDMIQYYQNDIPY
Phosphatidylinositol 4-kinase beta, sequence (Q9UBF8 whole entry, the tested form may be a part): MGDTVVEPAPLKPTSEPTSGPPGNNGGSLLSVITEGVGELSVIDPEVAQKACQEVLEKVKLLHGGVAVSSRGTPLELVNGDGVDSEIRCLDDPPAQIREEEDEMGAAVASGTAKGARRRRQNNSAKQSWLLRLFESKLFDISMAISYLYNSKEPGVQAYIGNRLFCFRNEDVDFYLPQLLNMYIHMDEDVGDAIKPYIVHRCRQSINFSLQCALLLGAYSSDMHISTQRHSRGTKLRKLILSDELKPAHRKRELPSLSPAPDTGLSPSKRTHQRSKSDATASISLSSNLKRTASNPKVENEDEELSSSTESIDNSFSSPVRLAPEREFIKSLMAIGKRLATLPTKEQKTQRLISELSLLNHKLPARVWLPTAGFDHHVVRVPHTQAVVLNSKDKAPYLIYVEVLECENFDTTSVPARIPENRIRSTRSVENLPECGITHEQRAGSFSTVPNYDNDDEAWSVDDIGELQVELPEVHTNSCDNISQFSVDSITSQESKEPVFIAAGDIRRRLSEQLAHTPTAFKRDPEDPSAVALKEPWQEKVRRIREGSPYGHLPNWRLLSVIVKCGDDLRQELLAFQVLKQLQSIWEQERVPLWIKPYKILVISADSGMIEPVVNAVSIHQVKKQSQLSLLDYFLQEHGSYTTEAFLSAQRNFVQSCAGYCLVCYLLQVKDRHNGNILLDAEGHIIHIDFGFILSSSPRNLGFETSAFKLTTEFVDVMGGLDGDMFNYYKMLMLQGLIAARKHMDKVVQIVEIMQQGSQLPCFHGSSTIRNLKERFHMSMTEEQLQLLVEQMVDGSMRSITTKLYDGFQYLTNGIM

SMILES | IC50 [1] [µM] | IC50 [2] [µM] | IC50 [3] [µM]
NC(=O)c1cc2c(N)ncnc2cc1-c1ccc2c(c1)OCO2 | > 50 | > 50 | –
CC(=O)Nc1cccc(-c2cc3ncnc(N)c3cc2C(N)=O)c1 | > 50 | > 50 | –
NC(=O)c1cc2c(N)ncnc2cc1-c1ccc2c(c1)CCO2 | > 50 | > 50 | –
NC(=O)c1cc2c(N)ncnc2cc1-c1ccc2cc[nH]c2c1 | > 50 | > 50 | –
NC(=O)c1cc2c(N)ncnc2cc1-c1ccc2[nH]cnc2c1 | > 50 | – | –
CCCCc1cc(=O)oc2cc(OCC(=O)N[C@@H](Cc3c[nH]c4ccc(O)cc34)C(=O)O)ccc12 | > 50 | > 50 | 1.46
NC(=O)c1cc2c(N)ncnc2cc1-c1cccc(CO)c1 | > 50 | > 50 | –
NC(=O)c1cc2c(N)ncnc2cc1-c1ccc2[nH]ccc2c1 | > 50 | > 50 | –
NC(=O)c1cc2c(N)ncnc2cc1-c1ccc(CO)o1 | – | – | > 50
NC(=O)c1cc2c(N)ncnc2cc1-c1cncc(CO)c1 | – | – | > 50
COC[C@H]1OC(=O)c2coc3c2[C@@]1(C)C1=C(C3=O)[C@@H]2CCC(=O)[C@@]2(C)C[C@H]1OC(C)=O [WORTMANNIN] | 0.28 | 0.44 | > 30
Nc1ncnc2c1ncn2[C@@H]1C[C@@]2(CO)CC[C@@H]1C2 | > 50 | > 50 | –
